Where two headings read alike, the source gives them in different places. Marks after values point to notes of the source that are not given here. Ends that are not written are not given here.
What was measured:
Type in all cases: cell-based
Conditions in all cases: 72 h
[1] = tested on: human chronic myeloid leukemia cells K562
Procedure: (§1) Human pancreatic cancer, hepatocellular carcinoma, colorectal cancer, ovarian cancer, cervical cancer, bladder cancer, melanoma, glioblastoma, neuroblastoma, glioma, osteosarcoma, myeloma, lymphoma, hematologic malignancies, and cholangiocarcinoma cells were cultured in an incubator at 37° C. with 5% CO2 until the density reached 90%, then digested and collected with trypsin, resuspended in a culture medium, and counted under a microscope; the cell concentration was adjusted to about 1.0×10^5 cells/mL; and the cell suspension was inoculated into a 96-well plate, with 100 μL per well, and incubated overnight in an incubator at 37° C. with 5% CO2. After the cells were completely attached to the wall, 100 μL of micropeptides MIAC with concentrations of 50 μM, 100 μM and 200 μM were added to form an administration group; and a culture medium without any medicament was used as a negative control group. After continuing incubation for 72 h, 100 μL of CCK8 was added to each well of the 96-well plate for dissolving. The absorbance OD was measured at a detection wavelength of 450 nm with a microplate reader, and the proliferation inhibition (PI) was calculated using the formula of PI (%)=1-administration group/negative control group. The experiment was repeated 3 times independently, the results were expressed as Mean±SD, and a statistical T test was performed, where *P<0.05 indicated a significant difference and **P<0.01 indicated an extremely significant difference.

[2] = tested on: human pancreatic cancer cells Aspc-1
Procedure: as §1

[3] = tested on: human ovarian cancer cells SKOV3
Procedure: as §1

[4] = tested on: human acute promyelocytic leukemia cells NB4
Procedure: as §1

[5] = tested on: human diffuse large B-cell lymphoma cells WSU-DLCL2
Procedure: as §1

[6] = tested on: human diffuse large B-cell lymphoma cells U2932
Procedure: as §1

[7] = tested on: human histiocytic lymphoma cells U937
Procedure: as §1

[8] = tested on: human mantle cell lymphoma cells JeKo-1
Procedure: as §1

[9] = tested on: human cervical cancer cells SIHA
Procedure: as §1

[10] = tested on: human hepatocellular carcinoma cells HCCLM3
Procedure: as §1

[11] = tested on: human colon cancer cells SW480
Procedure: as §1

[12] = tested on: human osteosarcoma cells U-2OS
Procedure: as §1

[13] = tested on: peripheral blood B lymphocytes RPMI-8226 in human multiple myeloma
Procedure: as §1

[14] = tested on: human monocytic leukemia cells Thp-1
Procedure: as §1

[15] = tested on: human hepatocellular carcinoma cells HepG2
Procedure: as §1

[16] = tested on: human glioma cells SHG-44
Procedure: as §1

[17] = tested on: human T-cell acute lymphoblastic leukemia cells JurKat
Procedure: as §1

[18] = tested on: human acute non-T non-B lymphocytic leukemia cells Reh
Procedure: as §1

[19] = tested on: human bladder transitional cell carcinoma cells T24
Procedure: as §1

[20] = tested on: human diffuse large B-cell lymphoma cells OCI-LY10
Procedure: as §1

[21] = tested on: human hepatocellular carcinoma cells QGY-7701
Procedure: as §1

[22] = tested on: human osteogenic sarcoma cells Saos-2
Procedure: as §1

[23] = tested on: human malignant melanoma cells M14
Procedure: as §1

Sequence: MERAGVPGFSPRRSSVEAKMQSTSCSVRKSSTVTAWPAVVLLLSWGQRRGG [MIAC, micropeptide inhibiting actin cytoskeleton]
- OD ([1]; K562, 50 μM): 1.004 ± 0.012**
- OD ([1]; K562, 100 μM): 0.544 ± 0.062**
- OD ([1]; K562, 200 μM): 0.338 ± 0.025**
- OD ([2]; Aspc-1, 50 μM): 0.939 ± 0.015
- OD ([2]; Aspc-1, 100 μM): 0.711 ± 0.047**
- OD ([2]; Aspc-1, 200 μM): 0.509 ± 0.019**
- OD ([3]; SKOV3, 50 μM): 1.244 ± 0.282**
- OD ([3]; SKOV3, 100 μM): 0.843 ± 0.049**
- OD ([3]; SKOV3, 200 μM): 0.727 ± 0.038**
- OD ([4]; NB4, 50 μM): 1.177 ± 0.042**
- OD ([4]; NB4, 100 μM): 0.826 ± 0.066**
- OD ([4]; NB4, 200 μM): 0.624 ± 0.052**
- OD ([5]; WSU-DLCL2, 50 μM): 0.908 ± 0.061
- OD ([5]; WSU-DLCL2, 100 μM): 0.684 ± 0.039**
- OD ([5]; WSU-DLCL2, 200 μM): 0.264 ± 0.056**
- OD ([6]; U2932, 50 μM): 0.426 ± 0.019**
- OD ([6]; U2932, 100 μM): 0.275 ± 0.038**
- OD ([6]; U2932, 200 μM): 0.167 ± 0.025**
- OD ([7]; U937, 50 μM): 1.069 ± 0.028
- OD ([7]; U937, 100 μM): 0.821 ± 0.047**
- OD ([7]; U937, 200 μM): 0.684 ± 0.046**
- OD ([8]; JeKo-1, 50 μM): 1.174 ± 0.027
- OD ([8]; JeKo-1, 100 μM): 0.820 ± 0.078**
- OD ([8]; JeKo-1, 200 μM): 0.496 ± 0.052**
- OD ([9]; 50 μM): 0.844 ± 0.099**
- OD ([9]; 100 μM): 0.755 ± 0.103**
- OD ([9]; 200 μM): 0.261 ± 0.052**
- OD ([10]; HCCLM3, 50 μM): 1.420 ± 0.054
- OD ([10]; HCCLM3, 100 μM): 0.981 ± 0.019**
- OD ([10]; HCCLM3, 200 μM): 0.706 ± 0.041**
- OD ([11]; SW480, 50 μM): 0.640 ± 0.032**
- OD ([11]; SW480, 100 μM): 0.283 ± 0.007**
- OD ([11]; SW480, 200 μM): 0.147 ± 0.016**
- OD ([12]; 50 μM): 0.887 ± 0.024
- OD ([12]; 100 μM): 0.596 ± 0.061**
- OD ([12]; 200 μM): 0.350 ± 0.013**
- OD ([13]; RPMI-8226, 50 μM): 2.008 ± 0.023
- OD ([13]; RPMI-8226, 100 μM): 1.001 ± 0.027**
- OD ([13]; RPMI-8226, 200 μM): 0.522 ± 0.028**
- OD ([14]; Thp-1, 50 μM): 1.265 ± 0.059
- OD ([14]; Thp-1, 100 μM): 0.841 ± 0.058**
- OD ([14]; Thp-1, 200 μM): 0.681 ± 0.045**
- OD ([15]; HepG2, 50 μM): 0.575 ± 0.047**
- OD ([15]; HepG2, 100 μM): 0.267 ± 0.022**
- OD ([15]; HepG2, 200 μM): 0.169 ± 0.015**
- OD ([16]; SHG-44, 50 μM): 1.201 ± 0.026
- OD ([16]; SHG-44, 100 μM): 0.838 ± 0.067**
- OD ([16]; SHG-44, 200 μM): 0.393 ± 0.021**
- OD ([17]; 50 μM): 0.984 ± 0.032
- OD ([17]; 100 μM): 0.730 ± 0.032**
- OD ([17]; 200 μM): 0.559 ± 0.038**
- OD ([18]; 50 μM): 0.964 ± 0.037
- OD ([18]; 100 μM): 0.687 ± 0.019**
- OD ([18]; 200 μM): 0.421 ± 0.029**
- OD ([19]; T24, 50 μM): 1.125 ± 0.010
- OD ([19]; T24, 100 μM): 0.730 ± 0.085**
- OD ([19]; T24, 200 μM): 0.364 ± 0.043**
- OD ([20]; OCI-LY10, 50 μM): 0.719 ± 0.028**
- OD ([20]; OCI-LY10, 100 μM): 0.598 ± 0.033**
- OD ([20]; OCI-LY10, 200 μM): 0.376 ± 0.019**
- OD ([21]; QGY-7701, 50 μM): 1.185 ± 0.018**
- OD ([21]; QGY-7701, 100 μM): 0.785 ± 0.030**
- OD ([21]; QGY-7701, 200 μM): 0.520 ± 0.019**
- OD ([22]; Saos-2, 50 μM): 1.198 ± 0.067
- OD ([22]; Saos-2, 100 μM): 0.946 ± 0.016**
- OD ([22]; Saos-2, 200 μM): 0.627 ± 0.052**
- OD ([23]; M14, 50 μM): 1.585 ± 0.030
- OD ([23]; M14, 100 μM): 1.046 ± 0.060**
- OD ([23]; M14, 200 μM): 0.639 ± 0.046**
